We go through three compounds from EPA's ToxRefDB 2.

Where only a bound is given, the exact number is not on record here.

Data set [1] has as its system mouse. The conditions noted are these: Subchronic oral toxicity in rodents, b6c3f1, Feed, dose end: 90 day.
Data set [2] has as its system mouse. The conditions noted are these: Multigenerational reproductive toxicity study; cd1; Oral; Feed; dose end: 2 generation; group: offspring; systemic / in life observation / body weight / offspring (pup) weight.
The subject of data set [3] is rat. The conditions noted are these: Subchronic oral toxicity in rodents, fischer, Feed, dose end: 90 day.
Data set [4] relates to mouse. The note with it: Developmental neurotoxicity study; other; Oral; [Not Specified]; dose end: 90 PND; group: cannot be grouped; systemic / in life observation / body weight / offspring (pup) weight gain + systemic / in life observation / clinical signs / convulsions.
In data set [5] the test system is rat. The note with it: Developmental neurotoxicity study; wistar; Injection; Subcutaneous; dose end: 42 PND; group: cannot be grouped; developmental / developmental malformation / general / crown-rump length + developmental / offspring survival late / [other] / [other] + ….
Data set [6] has as its system rat. The conditions noted are these: Developmental neurotoxicity study; wistar; Injection; Subcutaneous; dose end: 68 PND; group: cannot be grouped; developmental / offspring survival late / [other] / [other] + systemic / hematology / leukocyte (wbc) count differential / leukocyte (wbc….
In data set [7] the test system is rat. The note with it: Developmental neurotoxicity study; wistar; Oral; Water; dose end: 60 PND; group: cannot be grouped; systemic / in life observation / body weight / offspring (pup) weight.
The subject of data set [8] is rat. The conditions noted are these: Carcinogenicity; sprague dawley; Oral; Feed; dose end: 104 week; group: systemic; systemic / clinical chemistry / glucose / glucose + systemic / in life observation / body weight / body weight gain + systemic / in life ….
Another data set relates to rabbit. The note with it: Prenatal developmental toxicity study; new zealand white; Oral; Gavage/Intubation; dose end: 19 GD; group: maternal; systemic / in life observation / body weight / body weight + systemic / in life observation / clinical signs / [other] + systemic / in life ….
Data set [9] concerns rat. The conditions noted are these: Chronic toxicity; sprague dawley; Oral; Feed; dose end: 78 week; group: systemic; systemic / clinical chemistry / glucose / glucose + systemic / in life observation / body weight / body weight gain + systemic / in life ….
The mark [10] stands for this setting: group: maternal, reproductive / reproductive performance / estrous cycle / length.
The mark [11] stands for this setting: group: systemic, systemic / clinical chemistry / 5' nucleotidase / 5' nucleotidase + systemic / clinical chemistry / alanine aminotransferase (alt/sgpt) / ….
The mark [12] stands for this setting: group: systemic, systemic / in life observation / body weight / body weight gain + systemic / organ weight / liver / relative to body weight.
[13] abbreviates: group: systemic, systemic / organ weight / liver / relative to body weight.
The mark [14] stands for this setting: group: systemic, systemic / organ weight / liver / relative to body weight + systemic / clinical chemistry / bile acids / bile acids + systemic / in life ….

For `Cc1ccccc1O` [o-Cresol], the LEL in the data set with mouse [1] (setting [10]) is 237 mg/kg/day; in the data set on mouse [1] (setting [12]), 199 mg/kg/day; with mouse [2], 624 mg/kg/day; in the data set on rat [3] (setting [10]), 129 mg/kg/day; with rat [3] (setting [13]), 510 mg/kg/day. Moreover, the LOAEL in the data set with mouse [1] (setting [10]) is above 3200 mg/kg/day; in the data set on mouse [1] (setting [11]), above 3200 mg/kg/day; in the data set on mouse [2], above 624 mg/kg/day; in the data set with rat [3] (setting [10]), above 2020 mg/kg/day; with rat [3] (setting [13]), 1020 mg/kg/day. The NOAEL in the data set on mouse [1] (setting [10]) was at least 3200 mg/kg/day; in the data set on mouse [1] (setting [11]), at least 3200 mg/kg/day; in the data set on mouse [2], at least 624 mg/kg/day; in the data set with rat [3] (setting [10]), at least 2020 mg/kg/day; in the data set on rat [3] (setting [14]), 510 mg/kg/day. For the same compound, the NEL with mouse [1] (setting [12]) is below 199 mg/kg/day; with rat [3] (setting [10]), below 129 mg/kg/day; in the data set on rat [3] (setting [14]) it was 247 mg/kg/day.
Regarding `N[C@@H](CCC(=O)O)C(=O)[O-].[Na+]` [Sodium l-glutamate], the LEL was 2.5 mg/kg/day in the data set on mouse [4], 0.004 mg/kg/day in the data set on rat [5] and 10000 mg/kg/day in the data set on rat [7]. In addition, the LOAEL in the data set with mouse [4] was above 4 mg/kg/day; in the data set with rat [5], above 0.004 mg/kg/day; with rat [6], above 4000 mg/kg/day. The NEL in the data set with mouse [4] was below 2.5 mg/kg/day; in the data set with rat [5], below 0.004 mg/kg/day; with rat [6], below 4000 mg/kg/day; in the data set on rat [7] it was below 10000 mg/kg/day. The NOAEL with mouse [4] was at least 4 mg/kg/day; in the data set with rat [5], at least 0.004 mg/kg/day; in the data set with rat [6], at least 4000 mg/kg/day; with rat [7] it was at least 10000 mg/kg/day.
Consider `OC[C@H]1O[C@H](O[C@]2(CCl)O[C@H](CCl)[C@@H](O)[C@@H]2O)[C@H](O)[C@@H](O)[C@H]1Cl` [Sucralose], for which, in the data set on rat [8], the LEL stood at 150 mg/kg/day, the NEL was below 150 mg/kg/day and the no observed adverse effect level (NOAEL) was at least 15000 mg/kg/day. For the same compound, in the data set on rabbit, the LEL was determined as 700 mg/kg/day, the lowest-observed-adverse-effect level (LOAEL) is above 700 mg/kg/day, the NEL was determined as 350 mg/kg/day and the no-observed-adverse-effect level (NOAEL) is at least 700 mg/kg/day. In the data set with rat [9], the LEL is 150 mg/kg/day, the LOAEL is above 15000 mg/kg/day, the NEL is below 150 mg/kg/day and the NOAEL is at least 15000 mg/kg/day.

As usually defined, the LOAEL is the lowest tested level that showed an adverse finding. For orientation: NOAEL means the highest dose or exposure tested at which no adverse effect was seen.
